Values of other authors, collected in patent publication US11725135B2 (priority 2019, dated 2023).

Row | SMILES | concentration above which precipitation occurs / solubility [µg/mL]
1 | F[Si-2](F)(F)(F)(F)F.[K+].[K+] [Example K2SiF6, potassium hexafluorosilicate] | 1800
2 | F[Si-2](F)(F)(F)(F)F.[Na+].[Na+] [Na2SiF6] | 6400
